Results as given in patent US20220409633A1, “COMPOSITION COMPRISING BUDESONIDE FOR OPHTHALMIC USE” (NTC S.R.L., priority 2019, published 2022).

Legend:
[1] = cited from earlier work
[2] = Cumulative distribution Q3% (HELOS Particle Size Analysis) of budesonide powder; type: physicochemical; settings: FIG. 4
Source text: FIGS. 3 and 4 respectively show a diagram of the Cumulative Distribution Q3% (HELOS Particle Size Analysis) with respect to the particle size in μm, and a table corresponding to said diagram of the Cumulative Distribution with standard deviation, according to a possible embodiment of the budesonide that can be used in this invention. […] In this range of there is half the total weight, almost as in the remaining […]; Said budesonide is obtained and supplied by the manufacturer already in this form according to an average size distribution shown in the diagram of FIG. 3, and in tabular form in FIG. 4, which show the cumulative distribution Q3% with respect to the particle size in μm.

[3] = Average size distribution of micronized budesonide powder by laser diffractometer; type: physicochemical; settings: FIG. 5
Source text: Preferably, said budesonide has an average size distribution shown in the diagram of FIG. 5, and in tabular form in Table A.1 below (in which the numerical values are expressed in μm).
In Table A.1, the parameters Dx(10), Dx(50) and Dx(90) respectively indicate that 10%, 50% and 90% by weight of the particles analysed have a dimensional distribution below the numerical values (expressed in μm) indicated in such Table.
For example, the average size distribution could be determined by means of a Spraytec laser diffractometer (Malvern Panalytics, UK), preferably using the instrumental operating parameters shown in Table A.2 below, where the parameters not specified in such table were maintained as per default specifications of the laser diffractometer.

## CCCC1O[C@@H]2C[C@H]3[C@@H]4CCC5=CC(=O)C=C[C@]5(C)[C@H]4[C@@H](O)C[C@]3(C)[C@]2(C(=O)CO)O1 (stereo partly drawn) [budesonide]
[1]
  solubility in water: not water-soluble
[2]; x0/μm=2,50
  Cumulative Distribution Q3%: 90,32%
[2]; x0/μm=3.75
  Cumulative Distribution Q3%: 99,01%
[3]; 10% by weight of particles below this size
  Dx(10): 1.10 μm
[3]; 50% by weight of particles below this size
  Dx(50): 2.02 μm
[3]; 90% by weight of particles below this size
  Dx(90): 3.68 μm
